# Key:
# Type in all cases: in vivo
# Alternaria solani = test: Tomato Early Blight control (sprayed tomato seedlings); settings: 288 h, 250-ppm solution, tomato (cultivar Bonny Best) seedlings, inoculated one day later, about 12 days, relative to untreated check plants
# Protocol: Compounds of the invention were tested for the control of the Tomato Early Blight organism, Alternaria solani. Tomato (cultivar Bonny Best) seedlings of 6 to 7 weeks old were used. The tomato plants were sprayed with a 250-ppm solution of the test compound in an acetone-and-water solution containing a small amount of a non-ionic emulsifier. The sprayed plants were inoculated one day later with the organism, dried and maintained at 60-80% relative humidity for about 12 days. Percent disease control was based on the percent disease development on untreated check plants.
# Botrytis cinerea = Botrytis cinerea control (preventive, harvested grape berries); settings: 250-ppm solution; grape berries (cultivar Emperor); inoculated approximately one day later; 6-9 days after inoculation; relative to non-treated check
# Protocol: Compounds Nos. 1, 8 and 11 were tested as preventive fungicides against Botrytis cinerea on harvested mature grape berries (cultivar Emperor) by the following procedure: 4 grape bunches (trimmed to approximately 50 berries) were sprayed with a 250-ppm solution of the test compound in a solution of water, acetone and a small amount of a non-ionic emulsifier. The sprayed grapes were inoculated approximately one day later with 2- to 3-week-old spores of Botrytis cinerea grown on potato dextrose agar plants. The rate of disease incidence was determined 6-9 days after inoculation, when disease symptoms are fully evident on non-treated check grapes. Infection is determined by actual count of the number of infected berries. The percent disease control provided by a test compound was calculated from the percentage disease reduction based on the non-treated check plants.
# Plasmopara viticola = test: Preventive Grape Downy Mildew control (detached grape leaves); settings: detached Vitis vinifera cultivar Emperor leaves, seven to nine days after inoculation
# Protocol: Compounds Nos. 1, 4, 13 and 19 were tested for the control of the grape downy mildew organism Plasmopara viticola. Detached leaves, between 70 and 85 mm in diameter, of 7-week-old Vitis vinifera cultivar Emperor grape seedlings were used as hosts. The leaves were sprayed with a solution of the test compound in acetone. The sprayed leaves were dried, inoculated with a spore suspension of the organism, placed in a humid environmental chamber and incubated at 18°-22° C. and about 100% relative humidity. Seven to nine days after inoculation, the amount of disease control was determined. The percent disease control provided by a given test compound was based on the percent disease reduction relative to untreated check plants.
# Ersiphe polygoni = test: Powdery Mildew control (sprayed bean seedlings); settings: 250-ppm solution; bean seedlings (cultivar Bountiful); inoculated one day after spray; about 10 days; relative to untreated check plants
# Protocol: The powdery mildew test was made using bean seedlings (cultivar Bountiful) with well-developed primary leaves. The pathogen was Ersiphe polygoni. The bean seedlings were sprayed with a 250-ppm solution of the test compound in an acetone-water mixture containing a non-ionic emulsifier. The treated plants were inoculated one day after spray application of the test compound with the pathogen. The plants were then maintained in a greenhouse at 60-80% relative humidity and at a temperature of 20°-22° C. The rate of infection on the leaves were checked after about 10 days. The percent disease control provided by a given test compound was based on the disease reduction relative to untreated check plants.
# Phytophthora infestans = test: whole plant or invertebrate; settings: in Solanum lycopersicum, 168 h, read-out: % Control
# Septoria apii = settings: celery (Utah) plants 11 weeks old; approximately 14 days; concentration not given; relative to untreated check plants
SMILES,pest or weed control at 250 µg/mL (Alternaria solani) [%],pest or weed control at 250 µg/mL (Phytophthora infestans) [%],further results
CC1(C)OC(=O)CC(C(Cl)(Cl)Cl)N1OC(=O)Nc1ccccc1 (stereo not shown) [Compound 1],21,–,% Control (Botrytis cinerea): 23%; % Control (Plasmopara viticola; 250 ppm): 23%; % Control (Ersiphe polygoni): 91%
CC1(C)OC(=O)CC(C(Cl)(Cl)Cl)N1OC(=O)Nc1ccccc1F (stereo not shown) [Compound 2],21,–,% Control (Ersiphe polygoni): 75%
CC1(C)OC(=O)CC(C(Cl)(Cl)Cl)N1OC(=O)Nc1ccc(Cl)c(Cl)c1 (stereo not shown) [Compound 4],–,96,% Control (Plasmopara viticola; 100 ppm): 60%
O=C1CC(C(Cl)(Cl)Cl)N(OC(=O)Nc2ccc(Cl)c(Cl)c2)C2(CCCCC2)O1 (stereo not shown) [Compound 5],–,56,–
CC1(C)OC(=O)C(Cl)(Cl)C(C(Cl)(Cl)Cl)N1OC(=O)Nc1ccc(Cl)c(Cl)c1 (stereo not shown) [Compound 7],18,21,–
"CC1(c2ccccc2)OC(=O)C(Cl)(Cl)C(C(Cl)(Cl)Cl)N1OC(=O)Nc1ccccc1 (stereo not shown) [Compound 8, N-(phenylcarbamyloxy)-2-methyl-2-phenyl-4-trichloromethyl-5,5-dichloro-6-oxotetrahydro-1,3-oxazine]",84,97,% Control (Botrytis cinerea): 100%; % Control (Septoria apii): 61%
CC1(c2ccccc2)OC(=O)C(Cl)(Cl)C(C(Cl)(Cl)Cl)N1OC(=O)Nc1ccc(Cl)c(Cl)c1 (stereo not shown) [Compound 9],–,89,–
CC1(C)OC(=O)C(Cl)(Cl)C(C(Cl)(Cl)Cl)N1OC(=O)Nc1cccc(Cl)c1 (stereo not shown) [Compound 10],84,68,–
O=C(Nc1ccc(Cl)cc1)ON1C(C(Cl)(Cl)Cl)C(Cl)(Cl)C(=O)OC12CCCC2 (stereo not shown) [Compound 11],84,94,% Control (Botrytis cinerea): 78%; % Control (Septoria apii): 42%
O=C(Nc1cccc(Cl)c1)ON1C(C(Cl)(Cl)Cl)C(Cl)(Cl)C(=O)OC12CCCC2 (stereo not shown) [Compound 12],33,68,–
CC1(c2ccccc2)OC(=O)C(Cl)(Cl)C(C(Cl)(Cl)Cl)N1OC(=O)Nc1cccc(Cl)c1 (stereo not shown) [Compound 13],–,89,% Control (Plasmopara viticola; 100 ppm): 73%
CC1(C)OC(=O)C(Cl)(Cl)C(C(Cl)(Cl)Cl)N1OC(=O)Nc1ccc(Cl)cc1 (stereo not shown) [Compound 14],27,–,–
O=C(Nc1cccc(Cl)c1)ON1C(C(Cl)(Cl)Cl)C(Cl)(Cl)C(=O)OC1(c1ccccc1)c1ccccc1 (stereo not shown) [Compound 15],51,–,% Control (Ersiphe polygoni): 11%
O=C(Nc1ccc(Cl)cc1)ON1C(C(Cl)(Cl)Cl)C(Cl)(Cl)C(=O)OC1(c1ccccc1)c1ccccc1 (stereo not shown) [Compound 16],68,–,–
COc1ccc(NC(=O)ON2C(C(Cl)(Cl)Cl)C(Cl)(Cl)C(=O)OC2(C)C)cc1 (stereo not shown) [Compound 18],–,95,–
Cc1cccc(C)c1NC(=O)ON1C(C(Cl)(Cl)Cl)C(Cl)(Cl)C(=O)OC1(C)C (stereo not shown) [Compound 21],–,88,–
CC1(C)OC(=O)CC(C(Cl)(Cl)Cl)N1OC(=O)Nc1ccc(Cl)cc1 (stereo not shown) [Compound 24],–,–,% Control (Ersiphe polygoni): 75%
CC(C)C1(C)OC(=O)C(Cl)(Cl)C(C(Cl)(Cl)Cl)N1OC(=O)Nc1ccccc1 (stereo not shown) [Compound 27],–,92,–
CC(C)C1(C)OC(=O)CC(C(Cl)(Cl)Cl)N1OC(=O)Nc1ccc(Cl)c(Cl)c1 (stereo not shown) [Compound 28],–,23,–
CCC1(C)OC(=O)CC(C(Cl)(Cl)Cl)N1OC(=O)Nc1ccc(Cl)cc1 (stereo not shown) [Compound 31],39,27,% Control (Septoria apii): 64%
CC(C)C1(C)OC(=O)CC(C(Cl)(Cl)Cl)N1OC(=O)Nc1ccc(Cl)cc1 (stereo not shown) [Compound 32],23,56,% Control (Ersiphe polygoni): 100%
Cc1ccc(NC(=O)ON2C(C(Cl)(Cl)Cl)CC(=O)OC2(C)C)cc1 (stereo not shown) [Compound 33],–,21,% Control (Ersiphe polygoni): 96%

# — patent US4151279A (priority 1978, dated 1979)
